{
  "source": "patent US11840686B2",
  "about": "“Modulation of prekallikrein (PKK) expression” (Ionis Pharmaceuticals, Inc., priority 2013, dated 2023)",
  "tested_on": "human PKK mRNA",
  "test": "Dose-dependent antisense inhibition of human PKK in HepaRG cells, 0.19-5.00 uM (Example 5)",
  "type": "cell-based",
  "procedure,_shortened": "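PKK mRNA knockdown was measured by real-time PCR (primer probe set RTS3454) about 16 h after electroporating 20,000 HepaRG cells per well with oligonucleotide at four doses from 0.19 to 5.00 μM. Levels were adjusted to RIBOGREEN-measured total RNA, and IC50 values were calculated.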",
  "key": {"[1]": {"conditions": "HepaRG cells, electroporation, approximately 16 hours, Table 35"}, "[2]": {"conditions": "HepaRG cells, electroporation, approximately 16 hours, Table 36"}, "[3]": {"conditions": "HepaRG cells, electroporation, approximately 16 hours, Table 37"}, "[4]": {"conditions": "HepaRG cells, electroporation, approximately 16 hours, Table 38"}, "[5]": {"conditions": "HepaRG cells, electroporation, approximately 16 hours, Table 39"}, "[6]": {"conditions": "HepaRG cells, electroporation, approximately 16 hours, Table 40"}, "[7]": {"conditions": "Table 34, HepaRG, electroporation, ~16 h"}},
  "note": "Where “and” joins values, the source holds several entries; their conditions need not be identical. Equal entries are not always repeated. Strand notation (5' to 3'): a small letter for the sugar, then the base; units joined by * are phosphorothioate-linked, units joined directly phosphodiester-linked; [ ] holds rarer units or linkages, { } end groups; capitals alone tell only the bases. e = 2'-O-(2-methoxyethyl) (MOE); [5mC] = 5-methylcytosine; d = 2'-deoxy (DNA)",
  "data": [
    {"substance": "531231 (eT*eA*eT*e[5mC]*eA*d[5mC]*dT*dG*dT*dA*d[5mC]*dT*dA*dG*dT*eT*eT*e[5mC]*e[5mC]*eT) [compound 531231]", "values": [
      {"measurement": "percent inhibition of PKK at 0.19 μM", "setting": "[1]", "result": 25, "unit": "%"},
      {"measurement": "percent inhibition of PKK at 0.19 μM", "setting": "[2]", "result": 58, "unit": "%"},
      {"measurement": "percent inhibition of PKK at 0.19 μM", "setting": "[3]", "result": 34, "unit": "%"},
      {"measurement": "percent inhibition of PKK at 0.19 μM", "setting": "[4]", "result": 21, "unit": "%"},
      {"measurement": "percent inhibition of PKK at 0.19 μM", "setting": "[5]", "result": 21, "unit": "%"},
      {"measurement": "percent inhibition of PKK at 0.19 μM", "setting": "[6]", "result": 6, "unit": "%"},
      {"measurement": "percent inhibition of PKK at 0.56 μM", "setting": "[1]", "result": 34, "unit": "%"},
      {"measurement": "percent inhibition of PKK at 0.56 μM", "setting": "[2]", "result": 64, "unit": "%"},
      {"measurement": "percent inhibition of PKK at 0.56 μM", "setting": "[3]", "result": 47, "unit": "%"},
      {"measurement": "percent inhibition of PKK at 0.56 μM", "setting": "[4]", "result": 45, "unit": "%"},
      {"measurement": "percent inhibition of PKK at 0.56 μM", "setting": "[5]", "result": 39, "unit": "%"},
      {"measurement": "percent inhibition of PKK at 0.56 μM", "setting": "[6]", "result": 38, "unit": "%"},
      {"measurement": "percent inhibition of PKK at 1.67 μM", "setting": "[1]", "result": 84, "unit": "%"},
      {"measurement": "percent inhibition of PKK at 1.67 μM", "setting": "[2]", "result": 77, "unit": "%"},
      {"measurement": "percent inhibition of PKK at 1.67 μM", "setting": "[3]", "result": 72, "unit": "%"},
      {"measurement": "percent inhibition of PKK at 1.67 μM", "setting": "[4]", "result": 67, "unit": "%"},
      {"measurement": "percent inhibition of PKK at 1.67 μM", "setting": "[5]", "result": 90, "unit": "%"},
      {"measurement": "percent inhibition of PKK at 1.67 μM", "setting": "[6]", "result": 74, "unit": "%"},
      {"measurement": "percent inhibition of PKK at 5.00 μM", "setting": "[1]", "result": 92, "unit": "%"},
      {"measurement": "percent inhibition of PKK at 5.00 μM", "setting": "[2]", "result": 98, "unit": "%"},
      {"measurement": "percent inhibition of PKK at 5.00 μM", "setting": "[4]", "result": 96, "unit": "%"},
      {"measurement": "percent inhibition of PKK at 5.00 μM", "setting": "[5]", "result": 97, "unit": "%"},
      {"measurement": "percent inhibition of PKK at 5.00 μM", "setting": "[6]", "result": 95, "unit": "%"},
      {"measurement": "percent inhibition of PKK at 5.00 μM", "setting": "HepaRG cells, electroporation, approximately 16 hours, Table 41", "result": 97, "unit": "%"},
      {"measurement": "percent inhibition of PKK at 0.19 0μM", "setting": "0.19 0μM, HepaRG cells, electroporation, approximately 16 hours, Table 41", "result": 25, "unit": "%"},
      {"measurement": "percent inhibition of PKK at 0.56 0μM", "setting": "0.56 0μM, HepaRG cells, electroporation, approximately 16 hours, Table 41", "result": 55, "unit": "%"},
      {"measurement": "percent inhibition of PKK at 1.67 1μM", "setting": "1.67 1μM, HepaRG cells, electroporation, approximately 16 hours, Table 41", "result": 89, "unit": "%"},
      {"measurement": "IC50", "setting": "4 point dose response, HepaRG cells, Table 35", "result": 700, "unit": "nM"},
      {"measurement": "IC50", "setting": "4 point dose response, HepaRG cells, Table 37", "result": 500, "unit": "nM"},
      {"measurement": "IC50", "setting": "4 point dose response, HepaRG cells, Table 38", "result": 700, "unit": "nM"},
      {"measurement": "IC50", "setting": "4 point dose response, HepaRG cells, Table 39", "result": 600, "unit": "nM"},
      {"measurement": "IC50", "setting": "4 point dose response, HepaRG cells, Table 40", "result": 800, "unit": "nM"},
      {"measurement": "IC50", "setting": "4 point dose response, HepaRG cells, Table 41", "result": 500, "unit": "nM"},
      {"measurement": "percent inhibition of PKK mRNA, 0.19 μM", "setting": "HepaRG cells, 0.19 μM antisense oligonucleotide", "result": "7% and 6%"},
      {"measurement": "percent inhibition of PKK mRNA, 0.56 μM", "setting": "HepaRG cells, 0.56 μM antisense oligonucleotide", "result": "39% and 56%"},
      {"measurement": "percent inhibition of PKK mRNA, 1.67 μM", "setting": "HepaRG cells, 1.67 μM antisense oligonucleotide", "result": "56% and 68%"},
      {"measurement": "percent inhibition of PKK mRNA, 5.00 μM", "setting": "HepaRG cells, 5.00 μM antisense oligonucleotide", "result": 97, "unit": "%"},
      {"measurement": "IC50", "setting": "HepaRG cells, 0.19-5.00 μM", "result": "1000 nM and 800 nM"},
      {"measurement": "percent inhibition of PKK at 0.19 μM", "setting": "[7]", "result": 32, "unit": "%"},
      {"measurement": "percent inhibition of PKK at 0.56 μM", "setting": "[7]", "result": 30, "unit": "%"},
      {"measurement": "percent inhibition of PKK at 1.67 μM", "setting": "[7]", "result": 73, "unit": "%"},
      {"measurement": "percent inhibition of PKK at 5.00 μM", "setting": "[7]", "result": 89, "unit": "%"},
      {"measurement": "IC50", "setting": "Table 34, PKK mRNA, HepaRG, electroporation, ~16 h", "result": 500, "unit": "nM"}
    ]},
    {"substance": "Tes Ges mCes Aes Aes Gds Tds mCds Tds mCds Tds Tds Gds Gds mCds Aes Aes Aes mCes Ae [ISIS 546254]", "values": [
      {"measurement": "IC50", "setting": "4 point dose response curve (0.19-5.0 μM), HepaRG cells, electroporation", "result": "200 nM and 300 nM"}
    ]}
  ]
}
